From US8937167B2 (Washington University, priority 2009, dated 2015)
Read-outs that look alike come from different tables or passages of the source.

Target: FimH (Escherichia coli, UniProt Q1R2J4)
Conditions: for HAI Titer EC>50: Table 21
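Also: hemagglutination inhibition of guinea pig erythrocytes agglutinated by type 1 piliated uropathogenic E. coli via FimH mannose binding, quantified through serial dilutions of compound.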

Procedure: In some embodiments, activity of the compound is measured using hemmagglutination titer of guinea pig red blood cells. Hemagglutination of guinea pig red blood cells by type1 piliated UPEC is dependent upon FimH mannose binding ability and serial dilutions allow a quantitative analysis.
Biological activity against FimH was evaluated using a guinea pig red blood cell-based hemagglutination (HA) assay (ref) in which the concentration of the mannoside on reducing agglutination by 50% was used as the primary endpoint (50% HA titer).
Hemagglutination of guinea pig red blood cells by type1 piliated UPEC is dependent upon FimH mannose binding ability. Serial dilutions allow a quantitative analysis using this assay.
Hemagglutination assays for mannose-sensitive agglutination of guinea pig red blood cells were performed as previously described.

SMILES	HAI Titer EC>90 [µM]	HAI Titer EC>50 (ZFH/JWJ codes) [µM]	further results
CS(=O)(=O)Nc1ccccc1-c1ccc(OC2OC(CO)C(O)C(O)C2O)cc1 (centres unmarked) [Compound 3ZFH163, N-[2-[4-[3,4,5-trihydroxy-6-(hydroxymethyl)tetrahydropyran-2-yl]oxyphenyl]phenyl]methanesulfonamide]	12.000	–	–
CNS(=O)(=O)c1ccccc1-c1ccc(OC2OC(CO)C(O)C(O)C2O)cc1 (centres unmarked) [Compound 3ZFH176, N-methyl-2-[4-[3,4,5-trihydroxy-6-(hydroxymethyl)tetrahydropyran-2-yl]oxyphenyl]benzenesulfonamide]	4.000	–	–
CNS(=O)(=O)c1cccc(-c2ccc(OC3OC(CO)C(O)C(O)C3O)cc2)c1 (centres unmarked) [Compound 3ZFH179, N-methyl-3-[4-[3,4,5-trihydroxy-6-(hydroxymethyl)tetrahydropyran-2-yl]oxyphenyl]benzenesulfonamide]	1.000	–	–
COc1ccccc1-c1ccc(OC2OC(CO)C(O)C(O)C2O)cc1 (centres unmarked) [Compound 3ZFH188, 2-(hydroxymethyl)-6-[4-(2-methoxyphenyl)phenoxy]tetrahydropyran-3,4,5-triol]	2.000	–	–
COc1cccc(-c2ccc(OC3OC(CO)C(O)C(O)C3O)cc2)c1 (centres unmarked) [Compound 3ZFH190, 2-(hydroxymethyl)-6-[4-(3-methoxyphenyl)phenoxy]tetrahydropyran-3,4,5-triol]	1.500	–	–
COC(=O)c1cc(-c2ccc(OC3OC(CO)C(O)C(O)C3O)cc2)ccn1 [Compound 3ZFH220, methyl 4-[4-(a-D-mannopyranosyloxy)phenyl]pyridine-2-carboxylate]	0.500	–	–
NCCOCCOCCNC(=O)c1cc(-c2ccc(OC3OC(CO)C(O)C(O)C3O)cc2)cc([N+](=O)[O-])c1 (centres unmarked) [Compound 3ZFH245, N-[2-[2-(2-aminoethoxy)ethoxy]ethyl]-3-nitro-5-[4-[3,4,5-trihydroxy-6-(hydroxymethyl)tetrahydropyran-2-yl]oxyphenyl]benzamide]	0.25	–	–
O=C(Nc1ccncc1)c1cccc(-c2ccc(OC3OC(CO)C(O)C(O)C3O)cc2)c1 (centres unmarked) [Compound 3ZFH256, N-(4-pyridyl)-3-[4-[3,4,5-trihydroxy-6-(hydroxymethyl)tetrahydropyran-2-yl]oxyphenyl]benzamide]	0.25	–	–
CN1CCN(C(=O)c2cccc(-c3ccc(OC4OC(CO)C(O)C(O)C4O)cc3)c2)CC1 (centres unmarked) [Compound 3ZFH261, (4-methylpiperazin-1-yl)-[3-[4-[3,4,5-trihydroxy-6-(hydroxymethyl)tetrahydropyran-2-yl]oxyphenyl]phenyl]methanone]	4.000	–	–
O=C(Nc1cccnc1)c1cccc(-c2ccc(OC3OC(CO)C(O)C(O)C3O)cc2)c1 (centres unmarked) [Compound 3ZFH265, N-(3-pyridyl)-3-[4-[3,4,5-trihydroxy-6-(hydroxymethyl)tetrahydropyran-2-yl]oxyphenyl]benzamide]	0.375	–	–
CN(C)C(=NCCNC(=O)c1cccc(-c2ccc(OC3OC(CO)C(O)C(O)C3O)cc2)c1)N(C)C (centres unmarked) [Compound 3ZFH270, N-[2-[bis(dimethylamino)methyleneamino]ethyl]-3-[4-[3,4,5-trihydroxy-6-(hydroxymethyl)tetrahydropyran-2-yl]oxyphenyl]benzamide]	2.000	–	–
O=C(NCCO)c1cccc(-c2ccc(OC3OC(CO)C(O)C(O)C3O)cc2)c1 (centres unmarked) [Compound 3ZFH276, N-(2-hydroxyethyl)-3-[4-[3,4,5-trihydroxy-6-(hydroxymethyl)tetrahydropyran-2-yl]oxyphenyl]benzamide]	0.5000	–	–
NCCNC(=O)c1cccc(-c2ccc(OC3OC(CO)C(O)C(O)C3O)cc2)c1 (centres unmarked) [Compound 3ZFH280, N-(2-aminoethyl)-3-[4-[3,4,5-trihydroxy-6-(hydroxymethyl)tetrahydropyran-2-yl]oxyphenyl]benzamide]	3.000	–	–
O=C(c1cccc(-c2ccc(OC3OC(CO)C(O)C(O)C3O)cc2)c1)N1CCNCC1 (centres unmarked) [Compound 3ZFH284, piperazin-1-yl-[3-[4-[3,4,5-trihydroxy-6-(hydroxymethyl)tetrahydropyran-2-yl]oxyphenyl]phenyl]methanone]	4.0000	–	–
COC(=O)c1cccc(OC2OC(CO)C(O)C(O)C2O)c1 (centres unmarked) [Compound 3j]	–	–	fold loss of HA potency (carboxylic acid relative to matched pair methyl ester 3j): 10 fold
N#Cc1ccccc1OC1OC(CO)C(O)C(O)C1O (centres unmarked) [Compound 3m]	–	–	EC50 (read-out: HA 50% Titer, Table 10, Example 6 numbering): 6 µM
COC(=O)c1cccc(-c2ccc(NC3OC(CO)C(O)C(O)C3O)cc2)c1 (centres unmarked) [Compound 4ZFH44, methyl 3-[4-[[3,4,5-trihydroxy-6-(hydroxymethyl)tetrahydropyran-2-yl]amino]phenyl]benzoate]	4.000	–	–
COC(=O)c1cccc(-c2ccc(OC3OC(CO)C(O)C(O)C3O)c(Cl)c2)c1 (centres unmarked) [Compound 4ZFH49, methyl 3-[3-chloro-4-[3,4,5-trihydroxy-6-(hydroxymethyl)tetrahydropyran-2-yl]oxy-phenyl]benzoate]	0.032	–	–
COC(=O)c1sc(-c2ccc(OC3OC(CO)C(O)C(O)C3O)cc2)cc1NC(N)=O (centres unmarked) [Compound 4ZFH52-JJ, methyl 5-[4-[3,4,5-trihydroxy-6-(hydroxymethyl)tetrahydropyran-2-yl]oxyphenyl]-3-ureido-thiophene-2-carboxylate]	0.016	–	–

SMILES	HAI Titer EC>90 [µM]	HAI Titer EC>50 (ZFH/JWJ codes) [µM]	further results
COC(=O)c1cccc(-c2ccc(SC3OC(CO)C(O)C(O)C3O)cc2)c1 (centres unmarked) [Compound 4ZFH55, methyl 3-[4-[3,4,5-trihydroxy-6-(hydroxymethyl)tetrahydropyran-2-yl]sulfanylphenyl]benzoate]	4.000	–	–
COC(=O)c1cccc(-c2ccc(NC(=O)C3OC(CO)C(O)C(O)C3O)cc2)c1 (centres unmarked) [Compound 4ZFH89, methyl 3-[4-[[3,4,5-trihydroxy-6-(hydroxymethyl)tetrahydropyran-2-carbonyl]amino]phenyl]benzoate]	16.000	–	–
OCC1OC(n2cc(-c3ccccc3)nn2)C(O)C(O)C1O (centres unmarked) [Compound 4ZFH105, 2-(hydroxymethyl)-6-(4-phenyltriazol-1-yl)tetrahydropyran-3,4,5-triol]	32.000	–	–
O=C(NCC1O[C@@H](CO)[C@@H](O)[C@H](O)[C@H]1O)c1ccc(Br)cc1 (stereo partly drawn) [Compound 4ZFH123, 4-bromo-N-[[(3R,4R,5S,6S)-3,4,5-trihydroxy-6-(hydroxymethyl)tetrahydropyran-2-yl]methyl]benzamide]	16.000	16.000	HAI Titer EC>90 (Table 22, ZFH/JWJ codes): 16.000 µM
COC(=O)c1cccc(-c2ccc(C(=O)NCC3O[C@@H](CO)[C@@H](O)[C@H](O)[C@H]3O)cc2)c1 (stereo partly drawn) [Compound 4ZFH131, methyl 3-[4-[[(3R,4R,5S,6S)-3,4,5-trihydroxy-6-(hydroxymethyl)tetrahydropyran-2-yl]methylcarbamoyl]phenyl]benzoate]	16.000	16.000	HAI Titer EC>90 (Table 22, ZFH/JWJ codes): 16.000 µM
COC(=O)c1cccc(-c2ccc(OC3O[C@@H](CO)[C@@H](O)[C@H](O)[C@H]3O)c(F)c2)c1 (stereo partly drawn) [Compound 4ZFH220, methyl 3-[3-fluoro-4-[(3R,4S,5S,6S)-3,4,5-trihydroxy-6-(hydroxymethyl)tetrahydropyran-2-yl]oxy-phenyl]benzoate]	0.750	0.750	HAI Titer EC>90 (Table 22, ZFH/JWJ codes): 0.750 µM
OC[C@@H]1OC(Oc2ccc(-c3ccc4ncncc4c3)cc2)[C@H](O)[C@@H](O)[C@@H]1O (stereo partly drawn) [Compound 4ZFH247, (2S,3S,4S,5R)-2-(hydroxymethyl)-6-(4-quinazolin-6-ylphenoxy)tetrahydropyran-3,4,5-triol]	0.375	0.375	HAI Titer EC>90 (Table 22, ZFH/JWJ codes): 0.375 µM
OC[C@@H]1OC(Oc2ccc(-c3ccc4ccncc4c3)cc2)[C@H](O)[C@@H](O)[C@@H]1O (stereo partly drawn) [Compound 4ZFH275, (2S,3S,4S,5R)-2-(hydroxymethyl)-6-[4-(7-isoquinolyl)phenoxy]tetrahydropyran-3,4,5-triol]	0.750	0.750	HAI Titer EC>90 (Table 22, ZFH/JWJ codes): 0.750 µM
CC(=O)Nc1ccc(-c2ccc(OC3OC(CO)C(O)C(O)C3O)cc2)cc1 (centres unmarked) [Compound 4ZFH277]	–	1.000	–
CNC(=O)c1cc(C(=O)NC)cc(-c2ccc(OC3O[C@@H](CO)[C@@H](O)[C@H](O)[C@H]3O)c(C)c2)c1 (stereo partly drawn) [Compound 4ZFH284, N1,N3-dimethyl-5-[3-methyl-4-[(3R,4S,5S,6S)-3,4,5-trihydroxy-6-(hydroxymethyl)tetrahydropyran-2-yl]oxy-phenyl]benzene-1,3-dicarboxamide]	0.016	0.016	HAI Titer EC>90 (Table 22, ZFH/JWJ codes): 0.016 µM
NC(=O)Nc1csc(-c2ccc(OC3OC(CO)C(O)C(O)C3O)cc2)c1 (centres unmarked) [Compound 4ZFH303]	–	1.000	–
CC(=O)Nc1ccc(-c2ccc(OC3OC(CO)C(O)C(O)C3O)cc2)cc1C(=O)O (centres unmarked) [Compound 4ZFH306]	–	0.750	–
COC(=O)c1cc(-c2ccc(OC3OC(CO)C(O)C(O)C3O)cc2)ccc1NC(C)=O (centres unmarked) [Compound 4ZFH308]	–	0.250	–
COC(=O)c1cccc(-c2ccc(O[C@H]3O[C@H](CO)[C@@H](O)[C@H](O)[C@@H]3O)c(F)c2)c1 [Compound 4a, Methyl 3-[3-fluoro-4-[(2R,3S,4S,5S,6R)-3,4,5-trihydroxy-6-(hydroxymethyl)tetrahydropyran-2-yl]oxy-phenyl]benzoate]	–	–	HAI Titer EC>90 (Table 17, Examples 30-36 numbering): 0.75 µM
CNC(=O)c1cccc(-c2ccc([C@@H](O)C3OC(CO)C(O)C(O)C3O)cc2)c1 (some centres unmarked) [Compound 5ZFH38]	–	0.250	–
CNC(=O)c1cccc(-c2ccc([C@H](O)C3OC(CO)C(O)C(O)C3O)cc2)c1 (some centres unmarked) [Compound 5ZFH48]	–	24.000	–
CNC(=O)c1cccc(-c2ccc(CC3OC(CO)C(O)C(O)C3O)cc2)c1 (centres unmarked) [Compound 5ZFH49]	–	1.000	–
OCC1OC(Oc2ccc(-c3cccc4cnccc34)cc2)C(O)C(O)C1O (centres unmarked) [Compound 5ZFH61]	–	0.250	–
O=c1[nH]ccc2ccc(-c3ccc(OC4OC(CO)C(O)C(O)C4O)cc3)cc12 (centres unmarked) [Compound 5ZFH63]	–	0.100	–
